Structures can show the parent of a compound that is named as a salt.
How the values were obtained:
[1] = Dissolution Rate Test 1 of Compound A (Test Example 1); assay type: physicochemical; details: JP first fluid, 37° C.
Experimental: About 40 mg of Compound A or a monohydrate of Compound A and a formulation excipient [one excipient is selected from the following excipients: 377.6 mg of lactose (Borculo Domo Ingredients), 78.0 mg of croscarmellose sodium (Ac-Di-Sol, FMC International), 15.6 mg of hydroxypropyl cellulose (HPC-L, Nippon Soda Co., Ltd.), 5.2 mg of magnesium stearate (NOF Corp.) and 0.112 mg of yellow ferric oxide (Kishi Kasei Co., Ltd.)] were added to 200 ml of Japanese Pharmacopoeia (JP) first fluid (7.0 ml of hydrochloric acid and water added to 2.0 g of sodium chloride followed by dissolving and bringing to a volume of 100 ml, normally used as a test liquid that imitates disintegration and elution of chemicals in the stomach) followed by stirring with a stirrer at 37° C. in a 300 ml conical beaker. 10 ml-samples were collected after 30 minutes, 1 hour, 3 hours and 6 hours followed by filtration using Acrodisk LC13 (PVDF, Gelman Science, Inc.). After discarding the first 3 ml, the next 7 ml were removed into a test tube. 5 ml of the sample in the test tube was taken with a whole pipette and transferred to a test tube containing 2 ml of methanol followed by mixing.
(§1) Quantification was carried out using HPLC, and solubility was determined from a calibration curve generated according to the method described below.
The calibration curve was generated by preparing methanol standard solutions of Compound A at concentrations of 400, 100 and 20 μg/ml, followed by the addition of 5 ml of JP first fluid to 2 ml of each standard solution, mixing and quantifying by HPLC.
Analytical column: L-column ODS (4.6 mm ID×15 cm, Chemicals Evaluation and Research Institute, Japan)
Mobile phase: 0.01 mol/1 mixture of acetate buffer (pH 5.0) and acetonitrile (13:7)
Column temperature: 40° C.
Detector: Ultraviolet absorption spectrophotometer (measuring wavelength: 290 nm)

[2] = Dissolution Rate Test 2 of Compound A (Test Example 2); assay type: physicochemical; details: JP first fluid, 37° C., subsequently to 1 hour (3 hours, 6 hours); FIG. 2
Experimental: Dissolution Rate Test 2 of 5-{4-[(6-methoxy-1-methyl-1H-benzimidazol-2-yl)methoxy]benzyl}thiazolidine-2,4-dione hydrochloride (Compound A) About 40 mg of Compound A or a monohydrate of Compound A and a formulation excipient [one excipient is selected from the following excipients: 23.9 mg of OPADRY II, 17.2 mg of polyvinyl alcohol (GOHSENOL GL-05, Nippon Synthetic Chemical Industry Co., Ltd.), and 23.9 mg of OPAGLOS 2] were added to 200 ml of Japanese Pharmacopoeia (JP) first fluid (7.0 ml of hydrochloric acid and water added to 2.0 g of sodium chloride followed by dissolving and bringing to a volume of 100 ml, normally used as a test liquid that imitates disintegration and elution of chemicals in the stomach) followed by stirring with a stirrer at 37° C. in a 300 ml conical beaker. 10 ml-samples were collected after 30 minutes, 1 hour, 3 hours and 6 hours followed by filtration using Acrodisk LC13 (PVDF, Gelman Science, Inc.). […]
as §1
The calibration curve was generated by preparing methanol standard solutions of Compound A at concentrations of 400, 100 and 20 μg/ml, followed by the addition of 5 ml of JP first fluid to 2 ml of each standard solution, mixing and quantifying by HPLC. […]

[3] = stirring, samples after 30 minutes, 1 hour, 3 hours and 6 hours, HPLC, FIG. 1

| Compound | solubility [1, 3] | solubility ([1]; subsequently to 1 hour (3 hours, 6 hours)) | solubility [2] |
| --- | --- | --- | --- |
| COc1ccc2nc(COc3ccc(CC4SC(=O)NC4=O)cc3)n(C)c2c1 (stereo not shown) [Compound A, 5-{4-[(6-methoxy-1-methyl-1H-benzimidazol-2-yl)methoxy]benzyl}thiazolidine-2,4-dione hydrochloride] | decrease over time | decreased rapidly | decreased rapidly |
| COc1ccc2nc(COc3ccc(CC4SC(=O)NC4=O)cc3)n(C)c2c1.Cl.O (stereo not shown) [monohydrate, 5-{4-[(6-methoxy-1-methyl-1H-benzimidazol-2-yl)methoxy]benzyl}thiazolidine-2,4-dione hydrochloride (Compound A) monohydrate] | extremely low |  |  |

From patent US20080262054A1, “Pharmaceutical Composition Containing Thiazolidinedione Compound” (priority 2005, published 2008)
